These are literature values, as cited in patent publication US7803392B2, “pH-Sensitive mucoadhesive film-forming gels and wax-film composites suitable for topical and mucosal delivery of molecules” (University of Kentucky Research Foundation, priority 2000, dated 2010).

In general, pKa refers to the pH at which an ionisable group is half protonated.

For data set [1] the following is noted: buccal 10 mg midazolam per 2 mL.
The conditions of data set [2]: buccal administration of 5 mg midazolam.
The conditions of data set [3]: subcutaneous injection twice a day for 8 days, patients.

For the compound `Oc1cc(Cl)ccc1Oc1ccc(Cl)cc1Cl` [Triclosan, 2,4,4′-Trichloro 2′-hydroxy-diphenyl-ether 5-chloro 2-(2,4-dichlorophenoxy)-phenol], the pKa is 7.9. For the same compound, the “solubility in alkaline solutions” value (alkaline solutions) is given as “readily soluble”. The solubility in ethanol entry (ethanol) is reported as “soluble”. The “solubility in polyethylene glycol 400” value (polyethylene glycol 400) was “soluble”. Also, the solubility in water entry (water) is “insoluble”.

Turning to `Cc1ncc2n1-c1ccc(Cl)cc1C(c1ccccc1F)=NC2` [midazolam], the “average time to stop seizures after administration” value in data set [1] (children) was 6 min. Moreover, the seizures stopped in data set [1] (children (30/40 seizures)) was 75%. Further, in data set [2], the maximum plasma concentration is recorded as 55.9 ng/mL, the mean bioavailability is reported as 74.5% and the “time of maximum plasma concentration” value is 30 min.

For Hirudin, the “lower overall rate of deep-vein thrombosis than low molecular weight heparin” value in data set [3] is around 30%.
